In PubChem BioAssay (NCI):
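GI50 is the concentration that inhibits growth by half. TGI: concentration producing complete growth inhibition.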

Key:
Assay in all cases: growth of human tumour cells (NCI), 384-well format
SK-MEL-2 melanoma = tested on: SK-MEL-2 melanoma
NCI-H322M lung = tested on: NCI-H322M lung
M14 melanoma = tested on: M14 melanoma
SF-268 CNS = tested on: SF-268 CNS
SN12C renal = tested on: SN12C renal
NCI/ADR-RES ovarian = tested on: NCI/ADR-RES ovarian
CAKI-1 renal = tested on: CAKI-1 renal
NCI-H23 lung = tested on: NCI-H23 lung
UACC-62 melanoma = tested on: UACC-62 melanoma
ACHN renal = tested on: ACHN renal
A549 NSCLC = tested on: A549 NSCLC
NCI-H226 lung = tested on: NCI-H226 lung
SF-539 CNS = tested on: SF-539 CNS
HCT-116 colon = tested on: HCT-116 colon
LOX IMVI melanoma = tested on: LOX IMVI melanoma
BT-549 breast = tested on: BT-549 breast
IGROV1 ovarian = tested on: IGROV1 ovarian
RPMI-8226 leukemia = tested on: RPMI-8226 leukemia
HOP-62 NSCLC = tested on: HOP-62 NSCLC
OVCAR-8 ovarian = tested on: OVCAR-8 ovarian
786-0 renal = tested on: 786-0 renal
HS 578T breast = tested on: HS 578T breast
OVCAR-3 ovarian = tested on: OVCAR-3 ovarian
K-562 leukemia = tested on: K-562 leukemia
DU-145 prostate = tested on: DU-145 prostate
A498 renal = tested on: A498 renal
HCC-2998 colon = tested on: HCC-2998 colon
PC-3 prostate = tested on: PC-3 prostate
SW-620 colon = tested on: SW-620 colon
HOP-92 NSCLC = tested on: HOP-92 NSCLC
SNB-19 CNS = tested on: SNB-19 CNS
NCI-H460 NSCLC = tested on: NCI-H460 NSCLC
MALME-3M melanoma = tested on: MALME-3M melanoma
MOLT-4 leukemia = tested on: MOLT-4 leukemia
HT29 colon = tested on: HT29 colon
MDA-MB-435 melanoma = tested on: MDA-MB-435 melanoma
UACC-257 melanoma = tested on: UACC-257 melanoma
NCI-H522 lung = tested on: NCI-H522 lung
TK-10 renal = tested on: TK-10 renal
CCRF-CEM leukemia = tested on: CCRF-CEM leukemia
HL-60(TB) leukemia = tested on: HL-60(TB) leukemia
HCT-15 colon = tested on: HCT-15 colon
RXF 393 renal = tested on: RXF 393 renal
SK-MEL-28 melanoma = tested on: SK-MEL-28 melanoma
EKVX NSCLC = tested on: EKVX NSCLC
SF-295 CNS = tested on: SF-295 CNS
SK-OV-3 ovarian = tested on: SK-OV-3 ovarian
KM12 colon = tested on: KM12 colon
SK-MEL-5 melanoma = tested on: SK-MEL-5 melanoma
OVCAR-4 ovarian = tested on: OVCAR-4 ovarian
U251 glioblastoma = tested on: U251 glioblastoma
MDA-MB-468 breast = tested on: MDA-MB-468 breast
SNB-75 CNS = tested on: SNB-75 CNS
MCF7 breast = tested on: MCF7 breast
COLO 205 colon = tested on: COLO 205 colon

Q: Which GI50 (SK-MEL-2 melanoma) does the source give for `O=C(Nc1cccc(Br)c1)Oc1ccc(Cl)c2cccnc12` here?
A: 2.39 µM

Q: What about the TGI (SK-MEL-2 melanoma) of the same molecule?
A: 4.87 µM

Q: And the GI50 (NCI-H322M lung)?
A: 15.3 µM

Q: And the TGI (NCI-H322M lung)?
A: 31.4 µM

Q: And the GI50 (M14 melanoma)?
A: 2.68 µM

Q: And the TGI (M14 melanoma)?
A: 6.58 µM

Q: And the GI50 (SF-268 CNS)?
A: 3.33 µM

Q: And the TGI (SF-268 CNS)?
A: 12.1 µM

Q: What about the GI50 (SN12C renal) of the same molecule?
A: 3.56 µM

Q: And the TGI (SN12C renal)?
A: 14.9 µM

Q: And the GI50 (NCI/ADR-RES ovarian)?
A: 2.57 µM

Q: What about the TGI (NCI/ADR-RES ovarian) of the same molecule?
A: 4.9 µM

Q: What about the GI50 (CAKI-1 renal) of the same molecule?
A: 2.61 µM

Q: What about the TGI (CAKI-1 renal) of the same molecule?
A: 6.82 µM

Q: And the GI50 (NCI-H23 lung)?
A: 1.98 µM

Q: And the TGI (NCI-H23 lung)?
A: 3.91 µM

Q: And the GI50 (UACC-62 melanoma)?
A: 3.73 µM

Q: What about the TGI (UACC-62 melanoma) of the same molecule?
A: 10.8 µM

Q: And the GI50 (ACHN renal)?
A: 3.98 µM

Q: And the TGI (ACHN renal)?
A: 15 µM

Q: What about the GI50 (A549 NSCLC) of the same molecule?
A: 11 µM

Q: And the TGI (A549 NSCLC)?
A: 23.8 µM

Q: And the GI50 (NCI-H226 lung)?
A: 1.62 µM

Q: And the TGI (NCI-H226 lung)?
A: 3.12 µM

Q: What about the GI50 (SF-539 CNS) of the same molecule?
A: 3.26 µM

Q: And the TGI (SF-539 CNS)?
A: 10.4 µM

Q: What about the GI50 (HCT-116 colon) of the same molecule?
A: 2.02 µM

Q: And the TGI (HCT-116 colon)?
A: 3.77 µM

Q: What about the GI50 (LOX IMVI melanoma) of the same molecule?
A: 3.36 µM

Q: And the TGI (LOX IMVI melanoma)?
A: 12.3 µM

Q: And the GI50 (BT-549 breast)?
A: 3.75 µM

Q: What about the TGI (BT-549 breast) of the same molecule?
A: 15.4 µM

Q: What about the GI50 (IGROV1 ovarian) of the same molecule?
A: 1.49 µM

Q: What about the TGI (IGROV1 ovarian) of the same molecule?
A: 3.35 µM

Q: And the GI50 (RPMI-8226 leukemia)?
A: 1.65 µM

Q: What about the TGI (RPMI-8226 leukemia) of the same molecule?
A: 3.08 µM

Q: And the GI50 (HOP-62 NSCLC)?
A: 3.43 µM

Q: And the TGI (HOP-62 NSCLC)?
A: 6.55 µM

Q: And the GI50 (OVCAR-8 ovarian)?
A: 2.29 µM

Q: What about the TGI (OVCAR-8 ovarian) of the same molecule?
A: 4.86 µM

Q: What about the GI50 ([…]-0 renal) of the same molecule?
A: 14.3 µM

Q: What about the TGI (786-0 renal) of the same molecule?
A: 27.5 µM

Q: And the GI50 (HS 578T breast)?
A: 5.86 µM

Q: What about the TGI (HS 578T breast) of the same molecule?
A: 18.9 µM

Q: And the GI50 (OVCAR-3 ovarian)?
A: 1.91 µM

Q: And the TGI (OVCAR-3 ovarian)?
A: 3.64 µM

Q: What about the GI50 (K-562 leukemia) of the same molecule?
A: 13.5 µM

Q: What about the TGI (K-562 leukemia) of the same molecule?
A: 27 µM

Q: And the GI50 (DU-145 prostate)?
A: 4.76 µM

Q: What about the TGI (DU-145 prostate) of the same molecule?
A: 19.7 µM

Q: What about the GI50 (A498 renal) of the same molecule?
A: 4.23 µM

Q: And the TGI (A498 renal)?
A: 13.1 µM

Q: What about the GI50 (HCC-2998 colon) of the same molecule?
A: 15.4 µM

Q: What about the TGI (HCC-2998 colon) of the same molecule?
A: 28.9 µM

Q: What about the GI50 (PC-3 prostate) of the same molecule?
A: 2.37 µM

Q: What about the TGI (PC-3 prostate) of the same molecule?
A: 5.64 µM

Q: What about the GI50 (SW-620 colon) of the same molecule?
A: 4.45 µM

Q: And the TGI (SW-620 colon)?
A: 13.8 µM

Q: What about the GI50 (HOP-92 NSCLC) of the same molecule?
A: 3.59 µM

Q: What about the TGI (HOP-92 NSCLC) of the same molecule?
A: 9.38 µM

Q: What about the GI50 (SNB-19 CNS) of the same molecule?
A: 4.2 µM

Q: And the TGI (SNB-19 CNS)?
A: 15.4 µM

Q: What about the GI50 (NCI-H460 NSCLC) of the same molecule?
A: 3.22 µM

Q: What about the TGI (NCI-H460 NSCLC) of the same molecule?
A: 9.1 µM

Q: And the GI50 (MALME-3M melanoma)?
A: 2.79 µM

Q: And the TGI (MALME-3M melanoma)?
A: 7.77 µM

Q: And the GI50 (MOLT-4 leukemia)?
A: 1.73 µM

Q: And the TGI (MOLT-4 leukemia)?
A: 3.16 µM

Q: What about the GI50 (HT29 colon) of the same molecule?
A: 14.4 µM

Q: What about the TGI (HT29 colon) of the same molecule?
A: 27.6 µM

Q: And the GI50 (MDA-MB-435 melanoma)?
A: 5.71 µM

Q: What about the TGI (MDA-MB-435 melanoma) of the same molecule?
A: 19.1 µM

Q: What about the GI50 (UACC-257 melanoma) of the same molecule?
A: 2.6 µM

Q: What about the TGI (UACC-257 melanoma) of the same molecule?
A: 4.37 µM

Q: What about the GI50 (NCI-H522 lung) of the same molecule?
A: 2.01 µM

Q: And the TGI (NCI-H522 lung)?
A: 4.04 µM

Q: And the GI50 (TK-10 renal)?
A: 18.5 µM

Q: And the TGI (TK-10 renal)?
A: 47.4 µM

Q: And the GI50 (CCRF-CEM leukemia)?
A: 1.6 µM

Q: And the TGI (CCRF-CEM leukemia)?
A: 3.01 µM

Q: And the GI50 (HL-60(TB) leukemia)?
A: 0.42 µM

Q: What about the TGI (HL-60(TB) leukemia) of the same molecule?
A: 1.42 µM

Q: And the GI50 (HCT-15 colon)?
A: 3.74 µM

Q: And the TGI (HCT-15 colon)?
A: 10.6 µM

Q: What about the GI50 (RXF 393 renal) of the same molecule?
A: 2.63 µM

Q: And the TGI (RXF 393 renal)?
A: 9.07 µM

Q: And the GI50 (SK-MEL-28 melanoma)?
A: 3.5 µM

Q: And the TGI (SK-MEL-28 melanoma)?
A: 9.22 µM

Q: What about the GI50 (EKVX NSCLC) of the same molecule?
A: 2.6 µM

Q: And the TGI (EKVX NSCLC)?
A: 5.8 µM

Q: What about the GI50 (SF-295 CNS) of the same molecule?
A: 4.71 µM

Q: What about the TGI (SF-295 CNS) of the same molecule?
A: 16.3 µM

Q: And the GI50 (SK-OV-3 ovarian)?
A: 15.4 µM

Q: What about the TGI (SK-OV-3 ovarian) of the same molecule?
A: 28.9 µM

Q: What about the GI50 (KM12 colon) of the same molecule?
A: 7.59 µM

Q: What about the TGI (KM12 colon) of the same molecule?
A: 19.7 µM

Q: What about the GI50 (SK-MEL-5 melanoma) of the same molecule?
A: 2.01 µM

Q: And the TGI (SK-MEL-5 melanoma)?
A: 4.53 µM

Q: What about the GI50 (OVCAR-4 ovarian) of the same molecule?
A: 4.88 µM

Q: And the TGI (OVCAR-4 ovarian)?
A: 15.9 µM

Q: And the GI50 (U251 glioblastoma)?
A: 3.9 µM

Q: And the TGI (U251 glioblastoma)?
A: 11.2 µM

Q: What about the GI50 (MDA-MB-468 breast) of the same molecule?
A: 2.54 µM

Q: And the TGI (MDA-MB-468 breast)?
A: 4.16 µM

Q: What about the GI50 (SNB-75 CNS) of the same molecule?
A: 2.96 µM

Q: What about the TGI (SNB-75 CNS) of the same molecule?
A: 8.36 µM

Q: And the GI50 (MCF7 breast)?
A: 2.04 µM

Q: What about the TGI (MCF7 breast) of the same molecule?
A: 4.28 µM

Q: What about the GI50 (COLO 205 colon) of the same molecule?
A: 4.37 µM

Q: And the TGI (COLO 205 colon)?
A: 12.1 µM
